Read-outs that look alike come from different tables or passages of the source.
Legend:
Wistar rats [1] = assay: Acute (carrageenin) paw edema, anti-inflammatory activity in vivo; parameters: species or system rat; details: for ED50: Rattus norvegicus, read-out: ED50 acute inflammation; for Paw volume 0 / Paw volume 3 h: in mL (unit assumed); for Anti-inflammatory effect, %: control = 100.00
Experimental: The experiment was carried out using female and male Wistar rats aged 6-7 weeks with a body mass of 180-220 g. The number of animals in each group was 10.
The acute inflammatory reaction (edema) was reproduced by subplantar (under plantar or plantar aponeurosis) administration of 0.1 ml of 1% carrageenin solution (sulfated polysaccharide from Irish sea moss). The severity of the inflammatory reaction was assessed 3 hours after the induction of inflammation by a change in the volume of the paw (oncometric). The substance of formula I was administered into the stomach with the probe 1 hour before the introduction of the 1% solution of carrageenin. A 0.5% Tween-80 solution was used as a negative control. The anti-inflammatory effect, assessed by a decrease in edema, was expressed as a percentage of the control. According to the results of the action of four doses of the analyte, the calculation of ED50 was performed.
The introduction to rats was carried out in the amount of no more than 1 ml/100 g. The concentration of the resulting solution was 5 mg/ml.
Animals were euthanized by inhalation of carbon dioxide.

Wistar rats [2] = assay: Gastric toxicity (ulcerogenic effect), single intragastric administration, 4-point scale; assay type: in vivo, rat; details: for Gastrotoxic effect (averaged), points: 2000 mg/kg single intragastric, 3 hours
Experimental: In the study of gastric toxicity were taken female and male Wistar rats aged 6-7 weeks, with a body mass of 180-220 g. The number of animals in each group was 10.
Three hours after the administration of the suspension of the test substance at a dose of 2000 mg/kg (in 0.5% aqueous solution of Tween-80), the animals were euthanized; their stomachs were removed, dissected along the lesser curvature, and washed in physiological solution to remove the contents.
Evaluation of gastric toxicity was performed on a 4-point scale:
1—single minor injuries (1 or 2 point hemorrhages);
2—multiple injuries (erosion, spot hemorrhages);
3—significant and multiple injuries of the mucosa (erosion, hemorrhage);
4—gross injuries covering the entire surface of the mucosa (massive hemorrhages, erosion, perforations).
According to the results of the assessment, UD50 was determined—the dose of the tested substance causing gastrotoxic (ulcerogenic) effect corresponding to 2 points.
The introduction to rats is carried out in the amount of no more than 5 ml/200 g.
Animals were euthanized by carbon dioxide inhalation method.
At a single introduction of formula I compound at a dose of 2000 mg/kg, the gastrotoxic effect corresponded to an average of 0.6 points in male rats and 0.4 in females (Table 4).

[3] = mean value without sex distinction
[4] = female rats, 5 mg/kg intragastric
[5] = female rats, 10 mg/kg intragastric
[6] = female rats, 20 mg/kg intragastric
[7] = female rats, 50 mg/kg intragastric
[8] = male rats, 5 mg/kg intragastric
[9] = male rats, 10 mg/kg intragastric
[10] = male rats, 20 mg/kg intragastric
[11] = male rats, 50 mg/kg intragastric

`COc1ccc2cc([C@H](C)C(=O)OCc3cnc(C)c(OC(=O)[C@@H](C)c4ccc5cc(OC)ccc5c4)c3COC(=O)[C@@H](C)c3ccc4cc(OC)ccc4c3)ccc2c1` [Compound of formula I, 3-((S)-2-(6-methoxynaphth-2-yl)propanoiloxy)-4,5-bis (((S)-2-(6-methoxinaphtht-2-yl)propanoiloxy)methyl)-2-methylpyridinium (S)-2-(6-methoxynaphth-2-yl) propanoate] showed an ED50 (Wistar rats [1]; females) of 14 mg/kg, an ED50 (Wistar rats [1]; males) of 23 mg/kg and an ED50 (Wistar rats [1]; [3]) of 18.5 mg/kg. For the same compound, the “Inflammatory edema decreased by, vs control group” value (Wistar rats [1]; female rats, 5 mg/kg) was 13.37%, the “Paw volume 0” value (Wistar rats [1]; [4]) was 1.00 ± 0.03 and the “Paw volume 3 h” value (Wistar rats [1]; [4]) was 1.94 ± 0.20. For the same compound, the “Anti-inflammatory effect, %” value (Wistar rats [1]; female rats, 5 mg/kg) was 86.63 ± 17.71%, the “Inflammatory edema decreased by, vs control group” value (Wistar rats [1]; female rats, 10 mg/kg) was 38.64% and the “Paw volume 0” value (Wistar rats [1]; [5]) was 0.96 ± 0.06. The “Paw volume 3 h” value (Wistar rats [1]; [5]) was 1.60 ± 0.16, the “Anti-inflammatory effect, %” value (Wistar rats [1]; female rats, 10 mg/kg) was 61.36 ± 17.12% and the “Inflammatory edema decreased by, vs control group” value (Wistar rats [1]; female rats, 20 mg/kg) was 67.89%. For the same compound, the “Paw volume 0” value (Wistar rats [1]; [6]) was 0.91 ± 0.09, the “Paw volume 3 h” value (Wistar rats [1]; [6]) was 1.23 ± 0.20 and the “Anti-inflammatory effect, %” value (Wistar rats [1]; female rats, 20 mg/kg) was 32.11 ± 15.06%. For the same compound, the “Inflammatory edema decreased by, vs control group” value (Wistar rats [1]; female rats, 50 mg/kg) was 65.47%, the “Paw volume 0” value (Wistar rats [1]; [7]) was 0.91 ± 0.05 and the “Paw volume 3 h” value (Wistar rats [1]; [7]) was 1.26 ± 0.23. The “Anti-inflammatory effect, %” value (Wistar rats [1]; female rats, 50 mg/kg) was 34.53 ± 18.52%, the “Inflammatory edema decreased by, vs control group” value (Wistar rats [1]; male rats, 5 mg/kg) was 12.39% and the “Paw volume 0” value (Wistar rats [1]; [8]) was 0.89 ± 0.07. For the same compound, the “Paw volume 3 h” value (Wistar rats [1]; [8]) was 1.87 ± 0.21, the “Anti-inflammatory effect, %” value (Wistar rats [1]; male rats, 5 mg/kg) was 87.61 ± 19.75% and the “Inflammatory edema decreased by, vs control group” value (Wistar rats [1]; male rats, 10 mg/kg) was 23.57%. The “Paw volume 0” value (Wistar rats [1]; [9]) was 0.93 ± 0.06, the “Paw volume 3 h” value (Wistar rats [1]; [9]) was 1.84 ± 0.23 and the “Anti-inflammatory effect, %” value (Wistar rats [1]; male rats, 10 mg/kg) was 76.43 ± 22.74%. The “Inflammatory edema decreased by, vs control group” value (Wistar rats [1]; male rats, 20 mg/kg) was 51.25%, the “Paw volume 0” value (Wistar rats [1]; [10]) was 0.93 ± 0.05 and the “Paw volume 3 h” value (Wistar rats [1]; [10]) was 1.51 ± 0.16. For the same compound, the “Anti-inflammatory effect, %” value (Wistar rats [1]; male rats, 20 mg/kg) was 48.75 ± 16.39%, the “Inflammatory edema decreased by, vs control group” value (Wistar rats [1]; male rats, 50 mg/kg) was 62.34% and the “Paw volume 0” value (Wistar rats [1]; [11]) was 1.04 ± 0.20. The “Paw volume 3 h” value (Wistar rats [1]; [11]) was 1.54 ± 0.45, the “Anti-inflammatory effect, %” value (Wistar rats [1]; male rats, 50 mg/kg) was 37.66 ± 19.16% and the ED50 acute inflammation (Wistar rats [1]; [3]) was 19 mg/kg. For the same compound, the UD50 (Wistar rats [2]; females) was >2000 mg/kg, the “Gastrotoxic effect (averaged), points” value (Wistar rats [2]; females) was 0.4 points and the UD50 (Wistar rats [2]; males) was >2000 mg/kg. For the same compound, the “Gastrotoxic effect (averaged), points” value (Wistar rats [2]; males) was 0.6 points, the “Times less gastrotoxic than naproxen (UD50)” value (Wistar rats [2]; vs naproxen) was 40 times and the UD50 (Wistar rats [2]; without sex distinction) was >2000 mg/kg. The UD50 (Wistar rats [2]; without sex distinction, listed as compound of formula I) was > 2000 mg/kg.

— US10688084B2 (priority 2016, dated 2020)
